Measured values taken from patent publication US5594012A, “Amino acid derivatives and anti-active oxygen agents” (Ajinomoto Co., Inc., priority 1992, dated 1997).

The compounds below were run on lipid peroxidation in homogenate of murine swiss 3T3 cells (assay: Inhibitory effects on UV-induced lipid peroxidation (homogenate of murine swiss 3T3 cells)). Details: 1 mM test compound; UVB 0.4 mW/cm^2, 90 min; pH 7.2 to 7.8; TBA, 535 nm.
Type: biochemical
Method: Test for Inhibitory Effects on UV-induced Lipid Peroxidation
The test was carried out on the basis of the methods described in Biochim. Biophys. […] Namely, 12 μl of an aqueous sodium hydroxide solution of each of the test compounds shown in Table 5 below was added to 1.2 ml of a homogenate of murine swiss 3T3 cells (i.e. a kind of murine skin cells) prepared by a conventional method in 20 mM phosphate buffer (protein content: 1.5 to 1.8 mg/ml). The final concentration of the test compounds was adjusted to be 1 mM and the pH of the solution was adjusted to 7.2 to 7.8. If test compounds were not soluble in an aqueous sodium hydroxide solution, they were dissolved in N,N-dimethyl sulfoxide (DMSO).
This solution (1.1 ml) was irradiated with UV rays (0.4 mW/cm^2, 90 min.) using a UVB lamp "EB-280C/J" (manufactured by Spectronics). To an aliquot (1.0 ml) of this solution were successively added 0.2 ml of an aqueous solution of sodium dodecyl sulfate and 1.0 ml of an aqueous solution of thiobarbituric acid/trichloroacetic acid/hydrochloric acid, and the mixed solution was heated in a boiling water bath for 15 minutes. After ice-cooling, the solution was extracted with 1.0 ml of 1-butanol to prepare a sample for determining peroxide lipid as absorbance at a wavelength of 535 nm using a spectrophotometer "Model 320" (manufactured by Hitachi).
(§1) [formula] A1 : Absorbance when a test compound was added. A2 : Absorbance when a test compound was not added.
A3 : Absorbance when a test compound was not added and UV rays were not irradiated.

Compound	% Inhibition of UV-induced lipid peroxidation [%]
CC(O)C(NCc1ccccc1O)C(=O)O (stereo not shown) [Synthesis Example 10]	56
OCCNCc1ccccc1O [Synthesis Example 14]	45
O=C(O)CCNCc1ccccc1O [Synthesis Example 12]	29
O=C(O)CN(CCN(CC(=O)O)CC(=O)O)CC(=O)O [EDTA, reference compound]	34
O=C(O)C(Cc1ccccc1)NCc1ccccc1O (stereo not shown) [Synthesis Example 7]	48
CC(NCc1ccccc1O)C(=O)O (stereo not shown) [Synthesis Example 6]	66
NC(=O)CNCc1ccccc1O [Synthesis Example 11]	77
Oc1ccccc1CNCCc1c[nH]cn1 [Synthesis Example 15]	51
O=S(=O)(O)CCNCc1ccccc1O [Synthesis Example 13]	53
O=C(O)CNCc1ccccc1O [Synthesis Example 9]	60
O=C(O)CCC(NCc1ccccc1O)C(=O)O (stereo not shown) [Synthesis Example 5]	52
CC(C)C(NCc1ccccc1O)C(=O)O (stereo not shown) [Synthesis Example 8]	60

These compounds were tested on lipid peroxidation in murine brain homogenate (assay: Inhibitory effects on lipid peroxidation (murine brain homogenate)). Details: 30 μM test compound; no added iron; 37° C., 60 minutes; pH 7.2 to 7.8.
Type: biochemical, murine (C57 black mouse)
Method: (§2) The test was carried out according to the method described in Method in Enzymol., Vol. 52, page 302, 1978. A C57 black mouse was killed by cervical dislocation, and the whole brain extracted from the dissected head was washed with 20 mM phosphate buffer (hereinafter referred to as "PBS-2"). Then, the brain was added with PBS-2 in an amount of 19 times its wet weight, and the mixture was disrupted and homogenized with a homogenizer "Polytron" (manufactured by Kinematica). The thus prepared 5% solution of the murine brain homogenate in PBS-2 was diluted 1:5 with fresh PBS-2. To 800 μl of the resulting 1% solution of the murine brain homogenate in PBS-2 (protein content: 0.8 to 1.0 mg/ml) were successively added 100 μl of a PBS-2 solution of each of the test compounds shown in Table 7 below and 100 μl of an aqueous solution of ammonium iron (II) sulphate. The final concentration of the test compounds and ammonium iron (II) sulphate were adjusted to be 1 mM and 100 μM, respectively. If test compounds were not soluble in PBS-2 alone, an aqueous sodium hydroxide solution or DMSO was added. The pH of the solution was adjusted to 7.2 to 7.8.
Test for Inhibitory Effects on Lipid Peroxidation
To 900 μl of a 5% solution of the murine brain homogenate in PBS-2 prepared in the same way as described in Test Example 3 was added 100 μl of a PBS-2 solution of each of the test compounds shown in Table 8 below. The final concentration of the test compounds was adjusted to be 30 μM. If test compounds were not soluble in PBS-2 alone, an aqueous solution of sodium hydroxide or DMSO was added. The pH of the solution was adjusted to 7.2 to 7.8.
The solution after heated at 37° C. for 60 minutes was added with 1.0 ml of an aqeuous solution of thiobarbituric acid/trichloroacetic acid/hydrochloric acid, and the mixture was heated in a boiling water bath for 15 minutes. After ice-cooling, the solution was extracted with 2.0 ml of 1-butanol to prepare a sample for determining the lipid peroxide in the same way as described in Test Example 1. […] [formula] A4 : Absorbance when a test compound was added. A5 : Absorbance when a test compound was not added.
A6 : Abosrbance when a test compound was not added and heating at 37° C. for […] was not carried out.

Compound	% Inhibition of lipid peroxidation [%]
Vitamin E [reference compound]	30
Cc1ncc(CO)c(CNC(Cc2ccc(O)cc2)C(=O)O)c1O (stereo not shown) [Synthesis Example 26]	39
Cc1ncc(CO)c(CNC(Cc2ccccc2)C(=O)O)c1O (stereo not shown) [Synthesis Example 25]	55
Cc1ncc(CO)c(CNC(CCCNC(=N)N)C(=O)O)c1O (stereo not shown) [Synthesis Example 24]	85
Cc1ncc(CO)c(CNC(CC(=O)O)C(=O)O)c1O (stereo not shown) [Synthesis Example 20]	91
Cc1ncc(CO)c(CNC(Cc2c[nH]cn2)C(N)=O)c1O (stereo not shown) [Synthesis Example 23]	39
O=C1O[C@H]([C@@H](O)CO)C(O)=C1O [Vitamin C, reference compound]	-22
Cc1ncc(CO)c(CNC(C(=O)O)C(C)O)c1O (stereo not shown) [Synthesis Example 19]	59
Cc1ncc(CO)c(CNC(C)C(=O)O)c1O (stereo not shown) [Synthesis Example 17]	56

These compounds were tested on lipid peroxidation in murine brain homogenate (assay: Inhibitory effects on metal ion-induced lipid peroxidation (murine brain homogenate)). Details: 1 mM test compound; 100 μM ammonium iron (II) sulphate; 37° C., 30 minutes; pH 7.2 to 7.8.
Type: biochemical, murine (C57 black mouse)
Method: Test for Inhibitory Effects on Metal Ion-induced Lipid Peroxidation
as §2
The solution after heated at 37° C. for 30 minutes was added with 2.0 ml of an aqueous solution of thiobarbituric acid/trichloroacetic acid/hydrochloric acid, and the mixture was heated in a boiling water bath for 15 minutes. After ice-cooling, the solution was extracted with 1.0 ml of 1-butanol to prepare a sample for determining the peroxide lipid in the same way as described in Test Example 1.
as §1
A3 : Absorbance when a test compound was not added and heating at 37° C. for 30 minutes was not carried out.

Compound	% Inhibition of metal ion-induced lipid peroxidation [%]
O=S(=O)(O)CCN=Cc1c(O)ccc2ccccc12 [Synthesis Example 65]	73
Vitamin E [reference compound]	29
NC(=O)CC(N=Cc1c(O)ccc2ccccc12)C(=O)O (stereo not shown) [Synthesis Example 44]	90
O=C(O)C(Cc1ccc(O)c(O)c1)N=Cc1c(O)ccc2ccccc12 (stereo not shown) [Synthesis Example 32]	83
O=C(O)C(CO)N=Cc1cc(Br)ccc1O (stereo not shown) [Synthesis Example 58]	40
CC(C)C(N=Cc1cc(Cl)ccc1O)C(=O)O (stereo not shown) [Synthesis Example 64]	60
COC(=O)C(CO)N=Cc1c(O)ccc2ccccc12 (stereo not shown) [Synthesis Example 40]	88
CC(N=Cc1c(O)ccc2ccccc12)C(=O)O (stereo not shown) [Synthesis Example 36]	80
COC(=O)CCC(N=Cc1c(O)ccc2ccccc12)C(=O)OC (stereo not shown) [Synthesis Example 49]	81
O=C(O)C(CO)N=Cc1cc(Cl)ccc1O (stereo not shown) [Synthesis Example 57]	44
COC(=O)C(Cc1c[nH]cn1)N=Cc1c(O)ccc2ccccc12 (stereo not shown) [Synthesis Example 45]	85
CCC(C)C(N=Cc1c(O)ccc2ccccc12)C(=O)O (stereo not shown) [Synthesis Example 39]	50
O=C(O)CNC(=O)CN=Cc1c(O)ccc2ccccc12 [Synthesis Example 66]	20
O=C(CCC(N=Cc1c(O)ccc2ccccc12)C(=O)O)NO (stereo not shown) [Synthesis Example 50]	85
O=C(O)C(Cc1c[nH]cn1)N=Cc1cc(Br)ccc1O (stereo not shown) [Synthesis Example 62]	45
O=C(O)C(Cc1c[nH]c2ccccc12)N=Cc1c(O)ccc2ccccc12 (stereo not shown) [Synthesis Example 55]	87
COC(=O)C(Cc1ccccc1)NC(=O)C(CC(=O)O)N=Cc1c(O)ccc2ccccc12 (stereo not shown) [Synthesis Example 67]	38

Compound	% Inhibition of metal ion-induced lipid peroxidation [%]
CC(C)CC(N=Cc1c(O)ccc2ccccc12)C(=O)O (stereo not shown) [Synthesis Example 38]	74
Oc1ccc2ccccc2c1C=NCCc1c[nH]cn1 [Synthesis Example 46]	80
O=C1O[C@H]([C@@H](O)CO)C(O)=C1O [Vitamin C, reference compound]	-23
NC(=O)CN=Cc1c(O)ccc2ccccc12 [Synthesis Example 35]	16
CSCCC(N=Cc1c(O)ccc2ccccc12)C(=O)O (stereo not shown) [Synthesis Example 42]	86
NC(=O)CCC(N=Cc1c(O)ccc2ccccc12)C(=O)O (stereo not shown) [Synthesis Example 51]	84
OCC(Cc1c[nH]cn1)N=Cc1c(O)ccc2ccccc12 (stereo not shown) [Synthesis Example 33]	95
Oc1ccc2ccccc2c1C=NCCc1c[nH]c2ccccc12 [Synthesis Example 56]	57
O=C(O)CC(N=Cc1c(O)ccc2ccccc12)C(=O)O (stereo not shown) [Synthesis Example 43]	40
O=C(O)C(Cc1ccccc1)N=Cc1c(O)ccc2ccccc12 (stereo not shown) [Synthesis Example 54]	83
COc1cccc(C=NC(Cc2c[nH]cn2)C(=O)O)c1O (stereo not shown) [Synthesis Example 63]	60
O=C(O)C(CO)N=Cc1cc([N+](=O)[O-])ccc1O (stereo not shown) [Synthesis Example 59]	11
CC(O)C(N=Cc1c(O)ccc2ccccc12)C(=O)O (stereo not shown) [Synthesis Example 41]	79
CC(C)C(CO)N=Cc1c(O)ccc2ccccc12 (stereo not shown) [Synthesis Example 37]	30
O=C(O)C(Cc1c[nH]cn1)N=Cc1cc(Cl)ccc1O (stereo not shown) [Synthesis Example 61]	45
CCC(C)C(N=Cc1c(CO)cnc(C)c1O)C(=O)O (stereo not shown) [Synthesis Example 72]	14
O=C(O)CN=Cc1c(O)ccc2ccccc12 [Synthesis Example 34]	57
